Results reported in PubChem BioAssay (NCI).
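Interpolation was linear, between the two tested concentrations surrounding the appropriate level; five concentrations were tested over 48 hours in 96-well plates. TGI: total growth inhibition.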

Assays:
Experiment in all cases: DTP human tumour cell line panel, 48 h
SN12C renal = tested on: SN12C renal
IGROV1 ovarian = tested on: IGROV1 ovarian
T-47D breast = tested on: T-47D breast
UO-31 renal = tested on: UO-31 renal
BT-549 breast = tested on: BT-549 breast
DU-145 prostate = tested on: DU-145 prostate
SK-MEL-5 melanoma = tested on: SK-MEL-5 melanoma
SK-MEL-28 melanoma = tested on: SK-MEL-28 melanoma
HOP-62 NSCLC = tested on: HOP-62 NSCLC
K-562 leukemia = tested on: K-562 leukemia
SW-620 colon = tested on: SW-620 colon
NCI/ADR-RES ovarian = tested on: NCI/ADR-RES ovarian
OVCAR-5 ovarian = tested on: OVCAR-5 ovarian
COLO 205 colon = tested on: COLO 205 colon
HCT-15 colon = tested on: HCT-15 colon
HL-60(TB) leukemia = tested on: HL-60(TB) leukemia
HS 578T breast = tested on: HS 578T breast
OVCAR-8 ovarian = tested on: OVCAR-8 ovarian
MDA-N = tested on: MDA-N
ACHN renal = tested on: ACHN renal
UACC-257 melanoma = tested on: UACC-257 melanoma
OVCAR-3 ovarian = tested on: OVCAR-3 ovarian
SR leukemia = tested on: SR leukemia
MDA-MB-231 breast = tested on: MDA-MB-231 breast
UACC-62 melanoma = tested on: UACC-62 melanoma
SK-MEL-2 melanoma = tested on: SK-MEL-2 melanoma
SK-OV-3 ovarian = tested on: SK-OV-3 ovarian
A549 NSCLC = tested on: A549 NSCLC
RPMI-8226 leukemia = tested on: RPMI-8226 leukemia
SF-539 CNS = tested on: SF-539 CNS
HOP-92 NSCLC = tested on: HOP-92 NSCLC
NCI-H522 lung = tested on: NCI-H522 lung
CAKI-1 renal = tested on: CAKI-1 renal
TK-10 renal = tested on: TK-10 renal
HT29 colon = tested on: HT29 colon
EKVX NSCLC = tested on: EKVX NSCLC
SNB-19 CNS = tested on: SNB-19 CNS
CCRF-CEM leukemia = tested on: CCRF-CEM leukemia
PC-3 prostate = tested on: PC-3 prostate
OVCAR-4 ovarian = tested on: OVCAR-4 ovarian
M14 melanoma = tested on: M14 melanoma
NCI-H460 lung = tested on: NCI-H460 lung
KM12 colon = tested on: KM12 colon
MALME-3M melanoma = tested on: MALME-3M melanoma
NCI-H23 lung = tested on: NCI-H23 lung
MOLT-4 leukemia = tested on: MOLT-4 leukemia
MCF7 breast = tested on: MCF7 breast
MDA-MB-435 = tested on: MDA-MB-435
HCT-116 colon = tested on: HCT-116 colon
SF-268 CNS = tested on: SF-268 CNS
SF-295 CNS = tested on: SF-295 CNS
U251 CNS = tested on: U251 CNS
A498 renal = tested on: A498 renal
LOX IMVI melanoma = tested on: LOX IMVI melanoma
HCC-2998 colon = tested on: HCC-2998 colon
786-0 renal = tested on: 786-0 renal
NCI-H226 lung = tested on: NCI-H226 lung
RXF 393 renal = tested on: RXF 393 renal
SNB-75 CNS = tested on: SNB-75 CNS

Measured: TGI

CC(=O)Oc1ccc2c(c1OC(C)=O)CCC1C2=CC[C@]2(C)C(=O)CCC12 (some centres not stated)
33.3 µM: KM12 colon
68.8 µM: UACC-257 melanoma
28.1 µM: SN12C renal
25.5 µM: UACC-62 melanoma
46.9 µM: NCI-H23 lung
22.4 µM: HOP-92 NSCLC
12.9 µM: CCRF-CEM leukemia
53.7 µM: HOP-62 NSCLC
18.5 µM: HCT-116 colon
29.7 µM: SF-295 CNS
27.5 µM: HL-60(TB) leukemia
21.7 µM: UO-31 renal
21.3 µM: SK-MEL-28 melanoma
33.4 µM: MDA-N
15.9 µM: OVCAR-4 ovarian
29.1 µM: SF-539 CNS
18.8 µM: IGROV1 ovarian
18.2 µM: MDA-MB-435
23.5 µM: HCT-15 colon
6.2 µM: OVCAR-3 ovarian
24.3 µM: ACHN renal
28.3 µM: MDA-MB-231 breast
30.3 µM: OVCAR-5 ovarian
33.7 µM: A549 NSCLC
32.9 µM: SR leukemia | HT29 colon
1.55 µM: SK-MEL-5 melanoma
14.5 µM: SW-620 colon
31.2 µM: MCF7 breast
19.4 µM: MOLT-4 leukemia
28.6 µM: MALME-3M melanoma
27.7 µM: COLO 205 colon | OVCAR-8 ovarian | TK-10 renal
29.5 µM: SK-MEL-2 melanoma
40.3 µM: NCI-H460 lung
27.9 µM: SF-268 CNS
30.7 µM: BT-549 breast
87.4 µM: SK-OV-3 ovarian
37.6 µM: T-47D breast
26.1 µM: M14 melanoma
39.5 µM: K-562 leukemia
30.1 µM: DU-145 prostate | EKVX NSCLC
62.5 µM: HS 578T breast
19 µM: CAKI-1 renal
> 100 µM: NCI/ADR-RES ovarian
5.01 µM: NCI-H522 lung
8.41 µM: RPMI-8226 leukemia
17.3 µM: PC-3 prostate
32.8 µM: SNB-19 CNS

CN1C(NN)=NS(=O)(=O)c2ccccc21
not listed: RPMI-8226 leukemia | MALME-3M melanoma | SNB-75 CNS
> 100 µM: all other assays above

NC(=O)NN=C1C[C@H]2CCCC[C@H]2C1
not listed: CCRF-CEM leukemia | MALME-3M melanoma | NCI-H23 lung | RXF 393 renal
> 100 µM: all other assays above
